pIC50: −log10 of the molar value.
target: T1, human renal renin (Homo sapiens, UniProt P00797); assay: Inhibition of human renal renin in vitro (angiotensin I formation by radioimmunoassay); type: biochemical; conditions: not given
T1 construct: from tissue; host or cells: human kidney (read from the word 'renal'; no preparation is printed)
T1 sequence (P00797 67-406): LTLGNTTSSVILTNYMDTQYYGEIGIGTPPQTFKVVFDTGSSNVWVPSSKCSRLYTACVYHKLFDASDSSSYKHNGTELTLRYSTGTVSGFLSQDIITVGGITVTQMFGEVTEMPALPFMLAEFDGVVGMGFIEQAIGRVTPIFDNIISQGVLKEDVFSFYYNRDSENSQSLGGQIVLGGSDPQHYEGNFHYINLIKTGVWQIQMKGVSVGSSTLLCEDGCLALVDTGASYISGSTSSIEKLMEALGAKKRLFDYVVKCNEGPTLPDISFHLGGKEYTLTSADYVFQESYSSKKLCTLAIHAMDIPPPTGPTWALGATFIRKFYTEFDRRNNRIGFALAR

Row | SMILES | pIC50
1 | CCCC[C@H](N[C@@H](Cc1ccccc1)C(=O)N1CCC(OCOC)CC1)C(=O)N[C@@H](CC1CCCCC1)[C@@H](O)C[C@H](C(=O)NCCCn1ccnc1)C(C)C [Example 119] | 8.52

same assay, conditions: human renal renin, 37 degrees C, pH 6.0; read-out: IC50

Row | pIC50 | SMILES
2 | 8.05 | CCCC[C@H](N[C@@H](Cc1ccccc1)C(=O)N1CCOCC1)C(=O)N[C@@H](CC1CCCCC1)[C@@H](O)[C@@H](O)CC(C)C [Example 69, N-(1(S)-(4-Morpholinylcarbonyl)-2-phenylethyl)-L-norleucyl Amide of 2(S)-Amino-1-cyclohexyl-3(R),4(S)-dihydroxy-6-methylheptane]
3 | 8.26 | CC(C)C[C@H](O)[C@H](O)[C@H](CC1CCCCC1)NC(=O)[C@H](C)O[C@@H](Cc1ccccc1)C(=O)N1CCC1 [Example 87, 2(S)-(1(S)-(N-Azetidinylcarbonyl)-2-phenylethoxy)propionic acid Amide of 2(S)-Amino-1-cyclohexyl-3(R),4(S)-dihydroxy-6-methylheptane]
4 | 7.92 | CC(C)C[C@H](O)[C@H](O)[C@H](CC1CCCCC1)NC(=O)[C@H](C)O[C@@H](Cc1ccccc1)C(=O)N1CCCC1 [Example 88, 2(S)-(1(S)-(N-Pyrolidinylcarbonyl)-2-phenylethoxy)propionic acid Amide of 2(S)-Amino-1-cyclohexyl-3(R),4(S)-dihydroxy-6-methylheptane]
5 | 7.82 | CC(C)C[C@H](O)[C@H](O)[C@H](CC1CCCCC1)NC(=O)[C@H](C)O[C@@H](Cc1ccccc1)C(=O)N1CCCCC1 [Example 89, 2(S)-(1(S)-(N-Piperidinylcarbonyl)-2-phenylethoxy)propionic acid Amide of 2(S)-Amino-1-cyclohexyl-3(R),4(S)-dihydroxy-6-methylheptane]
6 | 8.41 | CCCCNC(=O)[C@@H](C[C@H](O)[C@H](CC1CCCCC1)NC(=O)[C@H](C)O[C@@H](Cc1ccccc1)C(=O)N1CCOCC1)C(C)C [Example 91, 2(S)-(1(S)-(4-Morpholinylcarbonyl)-2-phenylethoxy)propionic acid Amide of 2(S)-Amino-1-cyclohexyl-3(S)-hydroxy-5(S)-n-butylcarbamoyl-6-methylheptane]
7 | 8.96 | CCCC[C@H](O[C@@H](Cc1ccccc1)C(=O)N1CCC(OCOC)CC1)C(=O)N[C@@H](CC1CCCCC1)[C@@H](O)[C@@H](O)CC(C)C [Example 93, 2(S)-(1(S)-(4-(Methoxymethoxy)piperidin-1-yl-carbonyl)-2-phenylethoxy)hexanoic acid Amide of 2(S)-Amino-1-cyclohexyl-3(R),4(S)-dihydroxy-6-methylheptane]
8 | 8.89 | COCOC1CCN(C(=O)[C@H](Cc2ccccc2)O[C@@H](C)C(=O)N[C@@H](CC2CCCCC2)[C@@H](O)[C@@H](O)CC(C)C)CC1 [Example 94, 2(S)-(1(S)-(4-(Methoxymethoxy)piperidinyl-1-yl-carbonyl)-2-phenylethoxy)propionic acid Amide of 2(S)-Amino-1-cyclohexyl-3(R),4(S)-dihydroxy-6-methylheptane]
9 | 8.82 | CCCCNC(=O)[C@@H](C[C@H](O)[C@H](CC1CCCCC1)NC(=O)[C@H](CCCC)O[C@@H](Cc1ccccc1)C(=O)N1CCC(OCOC)CC1)C(C)C [Example 96, 2(S)-(1(S)-(4-(Methoxymethoxy)piperidin-1-yl-carbonyl)-2-phenylethoxy)hexanoic acid Amide of 2(S)-Amino-1-cyclohexyl-3(S)-hydroxy-5(S)-n-butylcarbamoyl-6-methylheptane]
10 | 9.06 | CCCC[C@H](O[C@@H](Cc1ccccc1)C(=O)N1CCC(OCOC)CC1)C(=O)N[C@@H](CC1CCCCC1)[C@@H](O)[C@@H]1CN(CC)C(=O)O1 [Example 108, 2(S)-(1(S)-(4-(Methoxymethoxy)piperidin-1-yl-carbonyl)-2-phenylethoxy)hexanoic acid Amide of (2's,1'R,5S)-3-Ethyl-5-(1'-hydroxy-2'-amino-3'-cyclohexylpropyl)oxazolidin-2-one]
11 | 8.89 | CCCC[C@H](O[C@@H](Cc1ccccc1)C(=O)N1CCC(OCOC)CC1)C(=O)N[C@@H](CC1CCCCC1)[C@@H](O)C[C@H](C(=O)NCCCn1ccnc1)C(C)C [Example 116, 2(S)-(1(S)-(4-(Methoxymethoxy)piperidin-1-yl)carbonyl-2-phenyl)ethoxyhexanoic acid amide of 3-(1-imidazolyl)propyl 5(S)-amino-6-cyclohexyl-4(S)-hydroxy-2(S)-isopropylhexanamide]
12 | 8.60 | CCCC[C@H](O[C@@H](Cc1ccccc1)C(=O)N1CCC(OCOC)CC1)C(=O)N[C@@H](CC1CCCCC1)[C@@H](O)C[C@H](C(=O)NCCCN(C)C)C(C)C [Example 117, 2(S)-(1(S)-(4-(Methoxymethoxy)piperidin-1-yl)carbonyl-2-phenyl)ethoxyhexanoic acid amide of 3-(dimethylamino)propyl 5(S)-amino-6-cyclohexyl-4(S)-hydroxy-2(S)-isopropylhexanamide]
13 | 8.60 | CCCC[C@H](O[C@@H](Cc1ccccc1)C(=O)N1CCC(OCOC)CC1)C(=O)N[C@@H](CC1CCCCC1)[C@@H](O)CN(C)S(=O)(=O)NC [Example 122, 2(S)-(1(S)-(4-(Methoxymethoxy)piperidin-1-yl)carbonyl-2-phenyl)ethoxyhexanoic acid amide of (2S,3S)-3-amino-4-cyclohexyl-2-hydroxy-1-(methyl(methylsulfamoyl)amino)butane]
14 | 8.57 | CCCC[C@H](O[C@@H](Cc1ccccc1)C(=O)N1CCC(OCOC)CC1)C(=O)N[C@@H](CC1CCCCC1)[C@@H](O)C[C@H](NC(=O)OCCN(C)C)C(C)C [Example 129]
15 | 8.85 | CCCC[C@H](O[C@@H](Cc1ccccc1)C(=O)N1CCC(OCOC)CC1)C(=O)N[C@@H](CC1CCCCC1)[C@@H](O)C[C@H](NC(=O)OCCN1CCOCC1)C(C)C [Example 130]
16 | 9.06 | CCCC[C@H](O[C@@H](Cc1ccccc1)C(=O)N1CCC(OCOC)CC1)C(=O)N[C@@H](CC1CCCCC1)[C@@H](O)C[C@H](NC(=O)OCCc1ccccn1)C(C)C [Example 131]
17 | 8.49 | CCCCC(=O)N[C@@H](C[C@H](O)[C@H](CC1CCCCC1)NC(=O)[C@H](CCCC)O[C@@H](Cc1ccccc1)C(=O)N1CCC(OCOC)CC1)C(C)C [Example 132, 2(S)-1(S)-4-(Methoxymethoxy)piperidin-1-yl)carbonyl-2-phenyl)ethoxyhexanoicacid amide of 2(S)-amino-1-cyclohexyl-5(S)-((2-(pentanoyl)amino-3(S)-hydroxy-6-methylheptane]
18 | 8.85 | CCCC[C@H](O[C@@H](Cc1ccccc1)C(=O)N1CCC(OCOC)CC1)C(=O)N[C@@H](CC1CCCCC1)[C@@H](O)C[C@H](C(=O)NCCC[N+](C)(C)[O-])C(C)C [Example 136]
19 | 8.57 | CCCC[C@H](O[C@@H](Cc1ccccc1)C(=O)N1CCC(OCOC)CC1)C(=O)N[C@@H](CC1CCCCC1)[C@@H](O)[C@@H](O)CN(C)OC [Example 139]
20 | 8.89 | CCCC[C@H](O[C@@H](Cc1ccccc1)C(=O)N1CCC(OCOC)CC1)C(=O)N[C@@H](CC1CCCCC1)[C@@H](O)CN(C(C)C)S(=O)(=O)NC [Example 142, 2(S)-(1(S)-(4-(Methoxymethoxy)piperidin-1-yl)carbonyl-2-phenyl)ethoxyhexanoic acid amide of (2S,3S)-3-amino-4-cyclohexyl-2-hydroxy-1-(isopropyl(methylsulfamoyl)amino)butane]
21 | 8.34 | CCCC[C@H](O[C@@H](Cc1ccccc1)C(=O)N1CCC(OCOC)CC1)C(=O)N[C@@H](CC1CCCCC1)[C@@H](O)C(F)(F)[C@H](O)C(C)C [Example 179]
22 | 8.42 | CCCC[C@H](O[C@@H](Cc1ccccc1)C(=O)N1CCC(OCOC)CC1)C(=O)N[C@@H](CC(C)C)[C@@H](O)CC(=O)NCC(C)CC (some centres unmarked) [Example 180]
23 | 8.74 | CCCC[C@H](N[C@@H](Cc1ccccc1)C(=O)N1CCC(OCOC)CC1)C(=O)N[C@@H](CC1CCCCC1)[C@H](O)CC(C(=O)N[C@H](C(=O)NCc1ccccn1)[C@@H](C)CC)C(C)C (some centres unmarked) [Example 181]

From patent US5268374A, “Non-peptide renin inhibitors” (Abbott Laboratories, priority 1991, dated 1993)
